For the data set, the target named is ATP-dependent translocase ABCB1 (Homo sapiens, UniProt P08183). In words: TP_TRANSPORTER: drug resistance (vincristine) in HeLa-MDR1 cells. In kind it is functional, cell-based.

The results in this text go back to ChEMBL document CHEMBL2073791, “Substituted pyridazino[3,4-b][1,5]benzoxazepin-5(6H)ones as multidrug-resistance modulating agents” (J Med Chem, 2004).

SMILES strings stand for the structures.

ATP-dependent translocase ABCB1, sequence (P08183 whole entry): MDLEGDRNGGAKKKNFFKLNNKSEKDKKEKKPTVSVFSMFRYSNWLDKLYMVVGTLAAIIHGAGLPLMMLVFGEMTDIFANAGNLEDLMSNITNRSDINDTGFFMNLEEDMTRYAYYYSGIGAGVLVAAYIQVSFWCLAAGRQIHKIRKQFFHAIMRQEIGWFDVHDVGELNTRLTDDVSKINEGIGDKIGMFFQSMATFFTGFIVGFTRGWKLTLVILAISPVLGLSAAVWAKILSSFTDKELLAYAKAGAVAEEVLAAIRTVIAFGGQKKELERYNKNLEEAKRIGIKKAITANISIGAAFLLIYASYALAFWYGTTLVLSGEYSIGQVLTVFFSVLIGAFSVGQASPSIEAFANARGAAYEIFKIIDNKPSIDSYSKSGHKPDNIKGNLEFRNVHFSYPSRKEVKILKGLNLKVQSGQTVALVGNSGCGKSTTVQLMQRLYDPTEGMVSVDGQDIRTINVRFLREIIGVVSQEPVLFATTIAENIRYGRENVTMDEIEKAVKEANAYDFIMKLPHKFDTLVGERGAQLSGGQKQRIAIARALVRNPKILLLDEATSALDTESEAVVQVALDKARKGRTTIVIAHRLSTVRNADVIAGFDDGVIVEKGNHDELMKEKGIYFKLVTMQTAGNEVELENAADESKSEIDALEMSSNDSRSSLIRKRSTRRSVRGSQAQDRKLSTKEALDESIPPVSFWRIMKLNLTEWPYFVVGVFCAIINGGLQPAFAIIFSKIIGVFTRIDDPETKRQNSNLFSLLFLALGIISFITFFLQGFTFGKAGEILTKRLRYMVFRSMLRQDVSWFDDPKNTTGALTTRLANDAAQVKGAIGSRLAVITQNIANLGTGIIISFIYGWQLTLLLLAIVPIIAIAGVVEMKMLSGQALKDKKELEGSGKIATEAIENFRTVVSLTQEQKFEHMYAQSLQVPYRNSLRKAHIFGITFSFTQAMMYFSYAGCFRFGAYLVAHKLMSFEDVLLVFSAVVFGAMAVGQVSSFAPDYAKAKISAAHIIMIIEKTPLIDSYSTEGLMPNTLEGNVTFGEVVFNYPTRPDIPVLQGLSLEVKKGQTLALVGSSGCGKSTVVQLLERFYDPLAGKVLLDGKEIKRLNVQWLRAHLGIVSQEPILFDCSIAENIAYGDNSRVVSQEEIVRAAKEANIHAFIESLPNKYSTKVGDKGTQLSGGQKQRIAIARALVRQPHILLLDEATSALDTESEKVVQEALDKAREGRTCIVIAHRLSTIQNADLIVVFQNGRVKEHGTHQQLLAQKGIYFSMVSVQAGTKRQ

For the compound `O=C1c2cc(Cl)nnc2Oc2cc(C(F)(F)F)ccc2N1CCCN1CCN(C(c2ccccc2)c2ccccc2)CC1`, the Activity result is “substrate [+]”.

Consider `O=C1c2cc(Cl)nnc2Oc2ccc(C(F)(F)F)cc2N1CCCN1CCN(Cc2ccccc2)CC1`, for which the Activity result was “substrate [+]”.

Turning to `O=C1c2cc(Cl)nnc2Oc2ccc(C(F)(F)F)cc2N1CCCN1CCN(c2ccccc2)CC1`, the Activity result is “substrate [+]”.

Consider `Cc1cc(C)c2c(c1)N(CCCN1CCN(c3ccccc3)CC1)C(=O)c1cc(Cl)nnc1O2`, for which the Activity entry is “substrate [+]”.
